Test system: adventitious root formation in control and PtrXB38-OE micro-cuttings
Assay: Adventitious root formation of micro-propagated cuttings in ½ MS medium with chemical treatment
Format: in vivo, P. tremula×P. alba ‘INRA 717-1B4’
Procedure: Plant Growth Conditions: The tissue culture plants were maintained in ½ MS media (½ MS basal salts, 20 g/L sucrose, 1× Gamborg's B5 vitamin mixture, 0.3% Gelzan) supplemented with 0.1 mg/L IBA and grown in growth chambers (16 h:8 h, light:dark) with white fluorescent light (100 μmol m^−2 s^−1) at 22° C. To assess adventitious root development phenotype, 2-3 cm length of shoot tops from 1-month-old tissue culture saplings were excised and placed in fresh medium for root induction. Root number was counted 12 days after subculture. For chemical treatment, filter-sterilized auxin transport inhibitor naphthylphthalamic acid (NPA) and ethylene biosynthesis inhibitor aminoethoxyvinylglycine (AVG) were added in the ½ MS medium.

Structure (SMILES): O=C(O)c1ccccc1C(=O)Nc1cccc2ccccc12 [NPA, naphthylphthalamic acid]
- root formation (5 μM NPA, both control and PtrXB38-OE micro-cuttings): completely blocked root formation
- promotive effect of PtrXB38 on AR formation (adventitious root number) (increasing NPA concentrations (0.2 μM and 1 μM, FIG. 3D), PtrXB38-OE plants): gradually attenuated
